Experiment: xn = mol fraction of the nth substance listed
Details: 102 kPa, Liquid; for viscosity: Concentric cylinders viscometry; for speed of sound: Frequency=3 MHz, Single path-length method; for mass density: Vibrating tube method

CCCCCCCCCCCCC1CCCCC1 [dodecylcyclohexane] + CCCCCCCCCCCCCCCC
Details | mass density [kg/m3] | speed of sound [m/s] | viscosity [mPa·s]
293.15 K, x1 = 0.2002 | 783.66 | 1370.4 | 4.02
293.15 K, x1 = 0.4001 | 793.67 | 1384 | 4.72
293.15 K, x1 = 0.5001 | 798.59 | 1390.6 | 5.11
293.15 K, x1 = 0.6003 | 803.47 | 1396.7 | 5.49
293.15 K, x1 = 0.8001 | 812.98 | 1410.4 | 6.49
293.15 K, x1 = 1 | 822.31 | 1423.3 | 7.76
303.15 K, x1 = 0.2002 | 776.77 | 1333.2 | 3.17
303.15 K, x1 = 0.4001 | 786.84 | 1347 | 3.66
303.15 K, x1 = 0.5001 | 791.79 | 1353.7 | 3.95
303.15 K, x1 = 0.6003 | 796.69 | 1359.9 | 4.23
303.15 K, x1 = 0.8001 | 806.26 | 1373.4 | 4.93
303.15 K, x1 = 1 | 815.65 | 1386.3 | 5.81
313.15 K, x1 = 0.2002 | 769.91 | 1296.9 | 2.56
313.15 K, x1 = 0.4001 | 780.03 | 1310.8 | 2.92
313.15 K, x1 = 0.5001 | 785.01 | 1317.6 | 3.13
313.15 K, x1 = 0.6003 | 789.93 | 1323.8 | 3.34
313.15 K, x1 = 0.8001 | 799.57 | 1337.3 | 3.85
313.15 K, x1 = 1 | 809.01 | 1350.4 | 4.48
323.15 K, x1 = 0.2002 | 763.05 | 1261.2 | 2.1
323.15 K, x1 = 0.4001 | 773.23 | 1275.3 | 2.38
323.15 K, x1 = 0.5001 | 778.23 | 1282.1 | 2.54
323.15 K, x1 = 0.6003 | 783.19 | 1288.5 | 2.7
323.15 K, x1 = 0.8001 | 792.89 | 1302 | 3.09
323.15 K, x1 = 1 | 802.37 | 1315.2 | 3.55
333.15 K, x1 = 0.2002 | 756.19 | 1226.5 | 1.76
333.15 K, x1 = 0.4001 | 766.43 | 1240.6 | 1.97
333.15 K, x1 = 0.5001 | 771.46 | 1247.5 | 2.1
333.15 K, x1 = 0.6003 | 776.44 | 1254.3 | 2.23
333.15 K, x1 = 0.8001 | 786.2 | 1267.8 | 2.53
333.15 K, x1 = 1 | 795.74 | 1281.1 | 2.88
343.15 K, x1 = 0.2002 | 749.3 | – | 1.49
343.15 K, x1 = 0.4001 | 759.7 | – | 1.67
343.15 K, x1 = 0.5001 | 764.7 | – | 1.77
343.15 K, x1 = 0.6003 | 769.7 | – | 1.88
343.15 K, x1 = 0.8001 | 779.6 | – | 2.11
343.15 K, x1 = 1 | 789.1 | – | 2.39
353.15 K, x1 = 0.2002 | 742.4 | – | 1.28
353.15 K, x1 = 0.4001 | 752.9 | – | 1.43
353.15 K, x1 = 0.5001 | 757.9 | – | 1.51
353.15 K, x1 = 0.6003 | 763 | – | 1.6
353.15 K, x1 = 0.8001 | 772.9 | – | 1.79
353.15 K, x1 = 1 | 782.5 | – | 2.01
363.15 K, x1 = 0.2002 | 735.6 | – | 1.14
363.15 K, x1 = 0.4001 | 746.1 | – | 1.24
363.15 K, x1 = 0.5001 | 751.1 | – | 1.31
363.15 K, x1 = 0.6003 | 756.2 | – | 1.38
363.15 K, x1 = 0.8001 | 766.2 | – | 1.54
363.15 K, x1 = 1 | 775.9 | – | 1.72
373.15 K, x1 = 0.2002 | 728.7 | – | 0.978
373.15 K, x1 = 0.4001 | 739.3 | – | 1.08
373.15 K, x1 = 0.5001 | 744.3 | – | 1.14
373.15 K, x1 = 0.6003 | 749.4 | – | 1.21
373.15 K, x1 = 0.8001 | 759.5 | – | 1.34
373.15 K, x1 = 1 | 769.2 | – | 1.48
